Assay results published in ChEMBL document CHEMBL5247589, “Natural occurrence, bioactivity, and biosynthesis of triene-ansamycins” (Eur J Med Chem, 2022).
≈ marks a conversion by molar mass, not a printed value.

Tests used:
PC-3 [1] = assay: Antiproliferative activity against human PC3 cells assessed as cell viability incubated for 48 hrs by Cell Counting Kit-8 assay; format: functional, cell-based; conditions: PC-3, 48 h
HepG2 [2] = assay: Antiproliferative activity against human HepG2 cells assessed as cell viability incubated for 48 hrs by Cell Counting Kit-8 assay; format: functional, cell-based; conditions: HepG2, 48 h
[3] = Antiproliferative activity against human U87 cells overexpressing miR-9 assessed as cell viability incubated for 48 hrs by Cell Counting Kit-8 assay; format: functional, cell-based, U-87MG ATCC; conditions: U-87 MG
PC-3 [4] = assay: Cytotoxicity against human PC-3 cells incubated for 48 hrs by CCK-8 assay; format: functional, cell-based; conditions: PC-3, 48 h
HepG2 [5] = assay: Cytotoxicity against human HepG2 cells incubated for 48 hrs by CCK-8 assay; format: functional, cell-based; conditions: HepG2, 48 h
L5178Y [6] = assay: Cytotoxicity against mouse L5178Y; format: toxicity, cell-based
Aspergillus japonicus = assay: Antifungal activity against Aspergillus japonicus IAM 2016 assessed as inhibition of fungal growth incubated for 72 hrs by broth dilution method; format: functional
Penicillium chrysogenum = assay: Antifungal activity against Penicillium chrysogenum1AM 7106 assessed as inhibition of fungal growth incubated for 72 hrs by broth dilution method; format: functional; conditions: 1AM 7106
Rhizomucor pusillus = assay: Antifungal activity against Rhizomucor pusillus IAM 6122 assessed as inhibition of fungal growth incubated for 72 hrs by broth dilution method; format: functional
Saccharomyces cerevisiae = assay: Antifungal activity against Saccharomyces cerevisiae IFO 0304 assessed as inhibition of fungal growth incubated for 72 hrs by broth dilution method; format: functional
Cyberlindnera jadinii = assay: Antifungal activity against Cyberlindnera jadinii IFO 0396 assessed as inhibition of fungal growth incubated for 72 hrs by broth dilution method; format: functional; conditions: Williopsis jadinii
Pichia kudriavzevii = assay: Antifungal activity against Pichia kudriavzevii IFO 0590 assessed as inhibition of fungal growth incubated for 72 hrs by broth dilution method; format: functional
Rhizopus delemar = assay: Antifungal activity against Rhizopus delemar IAM 6015 assessed as inhibition of fungal growth incubated for 72 hrs by broth dilution method; format: functional
[7] = Toxicity in CDF1 mouse allografted with mouse […] cells assessed as lethal dose administered for 6 days ,ip; format: cell-based; conditions: in vivo, time 6 day
L5178Y [8] = assay: Cytotoxicity against mouse L5178Y cells; format: functional
PANC-1 [9] = assay: Antitumor activity against human PANC-1 cells incubated for 48 to 72 hrs by MTS Assay; format: functional, cell-based
Capan-2 = assay: Antitumor activity against human Capan-2 cells incubated for 48 to 72 hrs by MTS Assay; format: functional, cell-based
BXPC-3 = assay: Antitumor activity against human BXPC-3 cells incubated for 48 to 72 hrs by MTS Assay; format: functional, cell-based
[10] = Inhibition of NO production in LPS stimulated mouse BV-2 cells measured after 24 hrs; format: functional, cell-based; conditions: BV-2, 24 h
[11] = Inhibition of bovine brain FTase; set-up: species or system Bos taurus
PC-3 [12] = assay: Antiproliferative activity against human PC-3 assessed as cell growth inhibition incubated for 48 hrs by Cell Counting Kit-8 assay; format: functional, cell-based; conditions: PC-3, 48 h
HepG2 [13] = assay: Antiproliferative activity against human HepG2 assessed as cell growth inhibition incubated for 48 hrs by Cell Counting Kit-8 assay; format: functional, cell-based; conditions: HepG2, 48 h
[14] = Antiproliferative activity against human U-87 MG assessed as cell growth inhibition incubated for 48 hrs by Cell Counting Kit-8 assay; format: functional, cell-based, U-87MG ATCC
PANC-1 [15] = assay: Antitumor activity against human PANC-1; format: functional, cell-based; conditions: pooled result: one value given for 3 cell lines, strains, targets or settings
HeLa = assay: Antitumor activity against human HeLa cells incubated for 72 hrs by hemocytometer; format: functional, cell-based
PLC = assay: Antitumor activity against human PLC cells incubated for 72 hrs by hemocytometer; format: functional, cell-based
BV-2 = assay: Cytotoxicity against LPS stimulated mouse BV-2 cells by MTS assay; format: functional, cell-based
[16] = Cytotoxicity against human HaCaT cells; format: toxicity, cell-based
[17] = Cytotoxicity against human HAF cells; format: toxicity, cell-based, Fibroblast; conditions: HAF cells (fibroblasts)
[18] = Cytotoxicity against mouse C2C12 cells; format: toxicity, cell-based
[19] = Cytotoxicity against human HaCaT cells incubated for 48 to 72 hrs by MTS assay; format: toxicity, cell-based
[20] = Cytotoxicity against human HAF cells incubated for 48 to 72 hrs by MTS assay; format: toxicity, cell-based, Fibroblast; conditions: HAF cells (fibroblasts)
[21] = Cytotoxicity against mouse C2C12 cells incubated for 48 to 72 hrs by MTS assay; format: toxicity, cell-based
HL-60 [22] = assay: Antitumor activity against human HL60 cells assessed as cell growth incubated for 1 day by MTT assay; format: functional, cell-based; conditions: HL-60, 24 h
[23] = Cytotoxicity against human WI-38 cells assessed as cell growth incubated for 1 day by MTT assay; format: toxicity, cell-based
Pyricularia oryzae = assay: Antimicrobial activity against Pyricularia oryzae by agar dilution method; format: functional
HL-60 [24] = assay: Induction of apoptosis in human HL-60 cells assessed as effective dose; format: functional; conditions: read-out: ED50 (the source's name)
HepG2 [25] = assay: Antitumor activity against human HepG2 cells incubated for 72 hrs by SRB calorimetric assay; format: functional, cell-based; conditions: HepG2, 72 h
PC-3 [26] = assay: Antitumor activity against human PC-3 cells incubated for 72 hrs by SRB calorimetric assay; format: functional, cell-based; conditions: PC-3, 72 h
A549 [27] = assay: Antitumor activity against human A549 cells incubated for 72 hrs by MTT assay; format: functional, cell-based; conditions: A549, 72 h
MCF7 = assay: Antitumor activity against human MCF7 cells incubated for 72 hrs by MTT assay; format: functional, cell-based; conditions: MCF7, 72 h
K562 [28] = assay: Antitumor activity against human K562 cells incubated for 24 hrs by CCK-8 assay; format: functional, cell-based; conditions: K562, 24 h
A549 [29] = assay: Cytotoxicity against human A549 cells incubated for 72 hrs by MTT assay; format: functional, cell-based; conditions: A549, 72 h
K562 [30] = assay: Cytotoxicity against human K562 cells incubated for 24 hrs by CCK-8 assay; format: functional, cell-based; conditions: K562, 24 h

CO[C@H]1/C=C/C=C/C=C/C[C@H](OC(=O)[C@@H](C)NC(=O)C2CCCCC2)[C@H](C)[C@@H](O[C@@H]2O[C@H](CO)[C@@H](O)[C@H](O)[C@H]2O)/C(C)=C\CCc2cc(O)cc(c2O)NC(=O)C1
IC50 (PC-3 [1]): ≥ 2020 nM | IC50 (HepG2 [2]): ≥ 2020 nM | IC50 [3]: ≥ 2020 nM | IC50 (PC-3 [4]): 4.38 µM | IC50 (HepG2 [5]): 2200 nM

CO[C@H]1/C=C/C=C/C=C/C[C@H](OC(=O)[C@@H](C)NC(=O)C2CCCCC2)[C@H](C)[C@@H](O)/C(C)=C\CCC2=CC(=O)C=C(NC(=O)C1)C2=O
MIC (L5178Y [6]): 1.25 µM (≈ 0.796 µg/mL) | MIC (Aspergillus japonicus): 4 µg/mL (≈ 6.28 µM) | MIC (Penicillium chrysogenum): 4 µg/mL (≈ 6.28 µM) | MIC (Rhizomucor pusillus): 4 µg/mL (≈ 6.28 µM) | MIC (Saccharomyces cerevisiae): 4 µg/mL (≈ 6.28 µM) | MIC (Cyberlindnera jadinii): 4 µg/mL (≈ 6.28 µM) | MIC (Pichia kudriavzevii): 4 µg/mL (≈ 6.28 µM) | MIC (Rhizopus delemar): 4 µg/mL (≈ 6.28 µM) | LD50 at 144 h [7]: 56 mg/kg | MIC (L5178Y [8]): 0.11 µg/mL (≈ 0.173 µM)

CO[C@H]1/C=C/C=C/C=C/C[C@H](O)[C@H](C)[C@@H](OC(=O)[C@@H](C)NC(=O)C2CCCCC2)/C(C)=C\CCc2cc(O)cc(c2)NC(=O)C1
IC50 (PANC-1 [9]): > 10 µM | IC50 (Capan-2): > 10 µM | IC50 (BXPC-3): > 10 µM | EC50 [10]: 292 nM

C/C=C(\C)C(=O)N[C@H](C)C(=O)O[C@H]1C/C=C/C=C/C=C/[C@H](OC)CC(=O)Nc2cc(O)cc(c2O)CC/C=C(/C)[C@H](O)[C@H]1C
IC50 [11]: 0.6 µg/mL (≈ 0.982 µM)

CO[C@@H]1CC(=O)Nc2c(O)c3cc4c2[C@H]1[C@@H](/C=C/C=C/C[C@H](OC(=O)[C@@H](C)NC(=O)C1CCCCC1)[C@H](C)[C@@H](O)/C(C)=C\CC3)O4
IC50 (PC-3 [12]): 2210 nM | IC50 (HepG2 [13]): 610 nM | IC50 [14]: 7.01 µM

CO[C@H]1/C=C/C=C/C=C/C[C@H](OC(=O)[C@@H](C)NC(=O)C2CCCCC2)[C@H](C)[C@@H](O)/C(C)=C\CCc2cc(O)cc(c2O)NC(=O)C1
MIC (Aspergillus japonicus): 4 µg/mL (≈ 6.26 µM) | MIC (Penicillium chrysogenum): 4 µg/mL (≈ 6.26 µM) | MIC (Rhizomucor pusillus): 4 µg/mL (≈ 6.26 µM) | MIC (Saccharomyces cerevisiae): 4 µg/mL (≈ 6.26 µM) | MIC (Cyberlindnera jadinii): 4 µg/mL (≈ 6.26 µM) | MIC (Pichia kudriavzevii): 4 µg/mL (≈ 6.26 µM) | MIC (Rhizopus delemar): 4 µg/mL (≈ 6.26 µM) | LD50 at 144 h [7]: 80 mg/kg | MIC (L5178Y [8]): 0.11 µg/mL (≈ 0.172 µM)

CO[C@H]1/C=C/C=C/C=C/C[C@H](OC(=O)[C@@H](C)NC(=O)C2=CCCCC2)[C@H](C)[C@@H](O)/C(C)=C\CCc2cc(O)cc(c2O)NC(=O)C1
IC50 [11]: 1.2 µg/mL (≈ 1.88 µM)

CO[C@H]1/C=C/C=C/C=C/C[C@H](OC(=O)[C@@H](C)NC(=O)C2CCCCC2)[C@H](C)[C@@H](O)/C(C)=C\CCc2cc(O)cc(c2)NC(=O)C1 [TRIENOMYCIN A]
IC50 (PANC-1 [15]): 8 nM | IC50 (HeLa): 8 nM | IC50 (PLC): 8 nM | IC50 (BV-2): 8 nM | IC50 [16]: 8 nM | IC50 [17]: 8 nM | IC50 [18]: 8 nM | EC50 [10]: 25.4 nM | IC50 [19]: > 10 µM | IC50 [20]: > 10 µM | IC50 [21]: > 10 µM

CO[C@H]1/C=C/C=C/C=C/C[C@H](OC(=O)C2(NC(=O)C3=CCCCC3)CC2)[C@H](C)[C@@H](O)/C(C)=C\CCc2cc(O)cc(c2O)NC(=O)C1
IC50 (HL-60 [22]): 7.7 nM | IC50 at 1 day [23]: 7.7 nM | MIC (Pyricularia oryzae): 12.5 µg/mL (≈ 19.3 µM) | EC50 (HL-60 [24]): 7.7 µM

CO[C@H]1/C=C/C=C/C=C/C[C@H](O)[C@H](C)[C@@H](OC(=O)[C@@H](C)NC(=O)C(C)C)/C(C)=C\CCc2cc(O)cc(c2)NC(=O)C1
IC50 (HepG2 [25]): > 10 µM | IC50 (PC-3 [26]): > 10 µM | IC50 (PANC-1 [9]): > 10 µM | IC50 (Capan-2): > 10 µM | IC50 (BXPC-3): > 10 µM

CO[C@H]1/C=C/C=C/C=C/C[C@H](OC(=O)[C@@H](C)NC(C)=O)[C@H](C)[C@@H](O)/C(C)=C\CCc2cc(O)cc(c2)NC(=O)C1
IC50 (A549 [27]): > 10 µM | IC50 (MCF7): > 10 µM | IC50 (K562 [28]): > 10 µM | IC50 (A549 [29]): 15 µM | IC50 (K562 [30]): 23 µM

CO[C@H]1/C=C/C=C/C=C/C[C@H](OC(=O)C2(NC(=O)C3CCCCC3)CC2)[C@H](C)[C@@H](O)/C(C)=C\CCc2cc(O)cc(c2O)NC(=O)C1
IC50 (HL-60 [22]): 7.7 nM | IC50 at 1 day [23]: 7.7 nM | EC50 (HL-60 [24]): 7.7 µM
